Results: article PMC9701179, “New tricyclic systems as photosensitizers towards triple negative breast cancer cells” (Archives of Pharmacal Research, 2022)
Like-named read-outs stand apart in the source and are kept apart here.

Assays:
MDA-MB-231 cells [1] = assay: MTT cytotoxicity/photocytotoxicity test on human TNBC MDA-MB-231 cells; type: cell-based; conditions: Homo sapiens
Procedure: The irradiation device used for the irradiation of cell cultures during the assays was a black box equipped with two Philips UVA lamps with an irradiance of 17 mW cm^−2 and a centered emission peak at 365 nm; UVA irradiance was measured using a Waldmann Variocontrol radiometer, equipped with a UVA sensor. The box was maintained at room temperature inside with a fan and the multiwell plates were placed onto a water-refrigerated metal block.
Human triple negative (TNBC) breast MDA-MB-231 carcinoma cells were obtained from American Type Culture Collection (ATCC, Rockville, MD, USA). Human embryonic kidney HEK293 cells were obtained from the European Collection of Cell Cultures (ECACC, Salisbury, UK). Cell lines were maintained in the logarithmic phase at 37 °C in a 5% CO2 atmosphere using the following culture media containing 10% foetal calf serum (Euroclone, Milan, Italy), antibiotics (50 units/mL penicillin and 50 μg/mL streptomycin) and 2 mM l-glutamine: (i) RPMI-1640 medium (Euroclone, Milan, Italy) for MDA-MB-231 4 cells; (ii) DMEM (Euroclone, Milan, Italy) for HEK293 cells.
Cells (5–8 × 10^3 cells/well, dependent upon the growth characteristics of the cell line) were seeded in 96-well microplates in growth medium (100 μL). After 24 h, the medium was removed and replaced with a fresh one containing the compound to be studied at the appropriate concentration. Triplicate cultures were established for each treatment. For photocytotoxicity studies, after 1 h of incubation the medium was replaced with PBS and cells were treated with 2.0 J cm^−2 of UVA light. After irradiation, PBS was replaced with complete proliferation media. For pre-irradiation studies, instead, compounds in PBS were irradiated with 2.0 J cm^−2 of UVA light and subsequently cells were treated with pre-irradiated solutions. Following 24 h, each well was treated with 10 μL of a 5 mg/mL MTT saline solution, and following 5 h of incubation, 100 μL of a sodium dodecyl sulfate (SDS) solution in HCl 0.01 M were added. After an overnight incubation, cell growth inhibition was detected by measuring the absorbance of each well at 570 nm using a Bio-Rad 680 microplate reader. Mean absorbance for each drug dose was expressed as a percentage of the control untreated well absorbance and plotted against drug concentration. IC50 values, the drug concentrations that reduce the mean absorbance at 570 nm to 50% of those in the untreated control wells, were calculated by the four-parameter logistic (4-PL) model. Evaluation was based on means from at least four independent experiments.
The new synthetized pyrrolo[1,2-h][1,7]naphthyridinones 7 and pyrido[2,3-c]pyrrolo[1,2-a]azepinones 8 were screened for their cytotoxicity (in the dark) and photocitotoxicity (upon UVA light irradiation at 2.0 J/cm^2) profile on human TNBC cells, MDA-MB-231. The cytotoxicity/photocytotoxicity parameters, expressed in terms of IC50 values obtained by MTT test after 24 h of drug-exposure, are listed in Table 2.

MDA-MB-231 cells [2] = assay: Intracellular ROS production (CM-H2DCFDA) under UVA; type: cell-based, human; conditions: MDA-MB-231, 25 µM, 90 min, UVA 2.0 J/cm^2; antimycin 3 µM positive control
Procedure: The production of ROS was measured in MDA-MB-231 cells (10^4 per well) grown for 24 h in a 96-well plate in RPMI medium without phenol red (Merk, Germany). Cells were then washed with PBS and loaded with 10 μM 5-(and-6)-chloromethyl-2′,7′-dichlorodihydrofluorescein diacetate acetyl ester (CM–H2DCFDA) (Molecular Probes-Invitrogen, Eugene, OR) for 45 min, in the dark. Afterwards, cells were washed with PBS and incubated with tested compounds (25 µM) for 90 min and after that exposed to UVA light (2.0 J/cm^2). Fluorescence increase was estimated utilizing the wavelengths of 485 nm (excitation) and 527 nm (emission) in a VICTOR X3 (PerkinElmer, USA) plate reader. Antimycin (3 μM, Merk), a potent inhibitor of Complex III in the electron transport chain, was used as positive control.
ROS production under light (UVA, 2.0 J/cm^2) was evaluated in MDA-MB-231 cell samples treated with increasing concentrations of tested compounds or antimycin, a potent inhibitor of Complex III of mitochondria electron chain, used as a positive control under the same experimental conditions (Fig. 4).
Fig. 4 Cellular ROS production (A) and total thiol redox state (B). A Effect of UVA activated tested compounds (25 µM) or antimycin (3 µM) on hydrogen peroxide formation in MDA-MB-231 cancer cells. B Sulfhydryl content in MDA-MB-231 cancer cells incubated for 24 h with UVA activated tested compounds. The sulfhydryl group amount was determined by the DTNB assay. Error bars indicate S.D

MDA-MB-231 cells [3] = assay: Mitochondrial membrane potential (Mito-ID kit); type: cell-based, human; conditions: MDA-MB-231, UVA 2.0 J/cm^2; CCCP positive control
Procedure: The ΔΨ was assayed using the Mito-ID® Membrane Potential Kit according to the manufacturer’s instructions (Enzo Life Sciences, Farmingdale, NY, USA) as previously described. Briefly, MDA-MB-231 cells (8 × 10^3 per well) were seeded in 96-well plates; after 24 h, cells were washed with PBS and loaded with Mito-ID Detection Reagent for 30 min at 37 °C in the dark. Afterwards, cells were incubated with increasing concentrations of tested compounds for 90 min and after that exposed to UVA light (2.0 J/cm^2). CCCP (Carbonyl cyanide 3-chlorophenyl-hydrazone) was used as positive control. Fluorescence intensity was estimated using a VICTOR X3 (PerkinElmer, USA) plate reader at 490 (excitation) and 590 nm (emission).
Induction of ROS production can in turn prompt the collapse of mitochondrial membrane potential as well as loss of mitochondrial integrity and functioning. […] MDA-MB-231 TNBC cells were treated with tested compounds upon UVA irradiation and the percentage of cells with hypopolarized mitochondrial membrane potential was determined fluorometrically by means of the Mito-ID® Membrane Potential Kit.
Fig. 5 Effects on mitochondrial membrane potential (A) and cell death induction (B) in human breast MDA-MB-231 cancer cells. A Cells were treated with 7h and 8e and stained with TMRM (10 nM). Fluorescence was estimated at 490 nm (excitation) and 590 nm (emission). Data are the means of five independent experiments. Error bars indicate S.D. * P < 0.05. B Cells were treated with concentrations of 7h and 8e equal to IC50 for 24 h and stained with the fluorescent dyes Hoechst 33342 and PI

**Q.** How did the IC50 (MDA-MB-231 cells [1]; MDA-MB-231, in the dark, 1 h pre-treatment, recovered for total 24 h, read-out: Dark IC50 (µM) ± S.D) turn out when `CC(C)OC(=O)c1ccc2n1CCCc1cc(S(=O)(=O)c3ccccc3)c(=O)n(C)c1-2` [Compound 8d, Propan-2-yl 3-(benzenesulfonyl)-1-methyl-2-oxo-1,5,6,7-tetrahydro-2H-pyrido[2,3-c]pyrrolo[1,2-a]azepine-9-carboxylate] was run?
**A.** The IC50 was > 50 µM.

**Q.** And the IC50 (MDA-MB-231 cells [1]; light or radiation study, MDA-MB-231, 1 h pre-treatment, UVA 2.0 J/cm^2, recovered for total 24 h, read-out: UVA (2.0 J/cm^2) IC50 (µM) ± S.D)?
**A.** The IC50 was > 50 µM.

**Q.** What about the “Cellular ROS production (hydrogen peroxide formation)” value (MDA-MB-231 cells [2]) of the same compound?
**A.** Its value is “hardly effective in inducing any ROS basal level production increase”.

**Q.** And the “Cells with depolarized mitochondria (mitochondrial membrane potential)” value (MDA-MB-231 cells [3])?
**A.** Its value is “did not induce a substantial change in mitochondrial membrane potential”.
